The structures appear in SMILES notation.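 Where inhibition never reached the appropriate level, the endpoint shown equals the highest concentration tested. Otherwise, values were interpolated linearly from a five-concentration, 48-hour dose response in 96-well plates. TGI marks complete inhibition of growth.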

Data on 8 compounds can be found in PubChem BioAssay (NCI).

Test systems include TK-10 renal; ACHN renal; SNB-75 CNS; SW-620 colon; SN12C renal; NCI-H522 lung; MOLT-4 leukemia; K-562 leukemia; BT-549 breast; OVCAR-8 ovarian; HCT-15 colon; MDA-MB-435; T-47D breast; MCF7 breast; SK-OV-3 ovarian; HT29 colon.
Common to all, as to assay: NCI tumour cell line growth inhibition, 48 h

In the case of `CCN(CC)CC(=O)O[C@]1(CC)C(=O)OCc2c1cc1n(c2=O)Cc2cc3ccccc3nc2-1`, the TGI in the experiment on TK-10 renal was 24.9 µM; with ACHN renal it was 0.146 µM; with SNB-75 CNS it was 0.677 µM; with SW-620 colon, 4.33 µM; in the experiment on SN12C renal, 1.8 µM; in the experiment on NCI-H522 lung it was 1.44 µM. In addition, the TGI in the experiment on MOLT-4 leukemia stood at 0.0749 µM; with K-562 leukemia, 38.3 µM; in the experiment with BT-549 breast, 1.93 µM; in the experiment on OVCAR-8 ovarian it was 3.65 µM; in the experiment with HCT-15 colon it was 3.93 µM; in the experiment on MDA-MB-435 it was 0.862 µM. This compound also returned a TGI in the experiment on T-47D breast of 0.404 µM.

Turning to `CC(=O)OC1(C)C=CC(=O)C=C1`, the TGI with TK-10 renal was 49.8 µM; in the experiment with ACHN renal it was 34.7 µM; in the experiment with SNB-75 CNS it was greater than 100 µM; in the experiment with MCF7 breast, greater than 100 µM; in the experiment on SK-OV-3 ovarian, greater than 100 µM; with SW-620 colon it was greater than 100 µM. The TGI with SN12C renal is greater than 100 µM; in the experiment on NCI-H522 lung it was 24.2 µM; with MOLT-4 leukemia it was greater than 100 µM; in the experiment on K-562 leukemia, greater than 100 µM; in the experiment on BT-549 breast it was greater than 100 µM; in the experiment on OVCAR-8 ovarian, greater than 100 µM. Moreover, the TGI with HCT-15 colon, in the experiment on HT29 colon and with MDA-MB-435 was greater than 100 µM in each case.

Turning to `COC1(OC)CC(CO)(CNc2nc(N)nc(Cl)c2/C=N\O)C1`, the TGI in the experiment with TK-10 renal, in the experiment on ACHN renal, in the experiment with SNB-75 CNS, in the experiment on MCF7 breast, in the experiment on SW-620 colon and with SN12C renal was greater than 100 µM each time. Also, the TGI is greater than 100 µM in the experiment with NCI-H522 lung; 85.4 µM in the experiment with MOLT-4 leukemia; greater than 100 µM in the experiment with K-562 leukemia; greater than 100 µM with BT-549 breast; greater than 100 µM with OVCAR-8 ovarian; greater than 100 µM in the experiment with HCT-15 colon. The TGI with HT29 colon and in the experiment on MDA-MB-435 was greater than 100 µM in each case.

For the compound `COc1ccc(N2C(=O)c3cc(C)cnc3S2(=O)=O)cc1`, the TGI in the experiment with TK-10 renal, in the experiment with ACHN renal, with SNB-75 CNS, in the experiment on SK-OV-3 ovarian, with SW-620 colon and in the experiment on SN12C renal was greater than 100 µM in each case. Moreover, the TGI in the experiment with NCI-H522 lung, in the experiment with MOLT-4 leukemia, in the experiment on K-562 leukemia, with BT-549 breast, in the experiment on OVCAR-8 ovarian and with HCT-15 colon was greater than 100 µM throughout. Besides, the TGI in the experiment with HT29 colon and in the experiment with MDA-MB-435 was greater than 100 µM each time.

With `O=c1[nH]c(Nc2nc3ccccc3[nH]2)nc2c1CCC2`, the TGI was greater than 100 µM in the experiment on TK-10 renal; greater than 100 µM in the experiment on ACHN renal; 77.8 µM in the experiment on SNB-75 CNS; greater than 100 µM in the experiment with MCF7 breast; greater than 100 µM in the experiment on SK-OV-3 ovarian; greater than 100 µM in the experiment with SW-620 colon. The TGI in the experiment with SN12C renal, with NCI-H522 lung, in the experiment on K-562 leukemia, in the experiment on BT-549 breast, with OVCAR-8 ovarian and with HCT-15 colon was greater than 100 µM throughout. In addition, the TGI in the experiment on HT29 colon and with MDA-MB-435 was greater than 100 µM each time.

Consider `CCOP(=O)(O)C1C(CO)OC(n2ccc(=O)[nH]c2=O)C1O` (stereo unspecified), for which the TGI in the experiment with TK-10 renal, in the experiment on ACHN renal, in the experiment with SNB-75 CNS, with SW-620 colon, in the experiment on SN12C renal and in the experiment with NCI-H522 lung was greater than 100 µM throughout. The TGI in the experiment with MOLT-4 leukemia, in the experiment with K-562 leukemia, with BT-549 breast, in the experiment on OVCAR-8 ovarian, in the experiment with HCT-15 colon and in the experiment with HT29 colon was greater than 100 µM in each case. The compound also registered a TGI in the experiment on T-47D breast greater than 100 µM.

As to `O=C1NCCCNCCCNCCCNC(=O)c2cccc1n2`, the TGI with TK-10 renal, in the experiment on ACHN renal, in the experiment on SNB-75 CNS, in the experiment on SK-OV-3 ovarian, in the experiment with SW-620 colon and in the experiment on SN12C renal was greater than 100 µM throughout. Besides, the TGI in the experiment with NCI-H522 lung, in the experiment on MOLT-4 leukemia, in the experiment with K-562 leukemia, in the experiment with BT-549 breast, with OVCAR-8 ovarian and with HCT-15 colon was greater than 100 µM each time. Moreover, the TGI in the experiment on HT29 colon and with MDA-MB-435 was greater than 100 µM in each case.

As to `C=C(CC[C@@H](C)[C@H]1CC[C@@]2(C)C3=C(CC[C@]12C)[C@@]1(C)CC[C@H](O)[C@@H](C)C1CC3)C(C)C` (stereo partly specified), the TGI in the experiment on TK-10 renal is 2.56 µM; in the experiment with ACHN renal it was 2.55 µM; with SNB-75 CNS, 2.49 µM; with MCF7 breast, 2.69 µM; in the experiment with SK-OV-3 ovarian, 2.79 µM; in the experiment with SW-620 colon, 3.44 µM. For the same compound, the TGI worked out at 2.72 µM in the experiment with SN12C renal; 2.49 µM in the experiment with MOLT-4 leukemia; 1.18 µM with K-562 leukemia; 3.13 µM in the experiment with BT-549 breast; 3.53 µM in the experiment on OVCAR-8 ovarian; 2.5 µM with HCT-15 colon. The TGI in the experiment with HT29 colon is 1.97 µM; with MDA-MB-435, 2.82 µM.
